This note sets out measurements from patent US20140051679A1, “KINASE INHIBITORS AND METHOD OF TREATING CANCER WITH SAME” (UNIVERISTY HEALTH NETWORKS, priority 2011, published 2014).

One experiment has as its target T1, human PLK4 (Homo sapiens, UniProt O00444).
T1 construct: amino terminal GST fusion of residues 1-391 of human PLK4; made in house; host or cells: E. coli
T1 sequence (O00444 1-391): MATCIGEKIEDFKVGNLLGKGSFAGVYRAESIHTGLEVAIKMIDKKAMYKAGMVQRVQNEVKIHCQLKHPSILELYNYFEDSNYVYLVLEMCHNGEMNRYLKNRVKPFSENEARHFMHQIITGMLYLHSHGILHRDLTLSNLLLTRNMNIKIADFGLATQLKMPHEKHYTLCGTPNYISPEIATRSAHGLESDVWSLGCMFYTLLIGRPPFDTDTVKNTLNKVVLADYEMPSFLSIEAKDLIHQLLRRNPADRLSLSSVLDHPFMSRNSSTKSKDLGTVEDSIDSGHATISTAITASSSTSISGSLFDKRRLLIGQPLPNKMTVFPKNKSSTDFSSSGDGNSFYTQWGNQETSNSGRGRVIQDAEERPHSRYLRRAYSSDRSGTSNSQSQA
Description: PLK4 inhibition assay (indirect ELISA). Conditions: GST-PLK4 4 nM, 15 μM ATP; read-out: IC50 Ranges PLK4. The format is biochemical. In a few lines: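 Dephosphorylated GST-tagged human PLK4 (residues 1-391, E. coli), 4 nM, preincubated 15 min with compound, then reacted 30 min with 15 μM ATP on MBP-coated plates (50 mM HEPES pH 7.5, 10 mM MgCl2, 0.01% Brij 35). Phospho-MBP detected by antibody ELISA at 450 nm. Tested at 10 μM or 10-point titrations; IC50 from 4-parameter logistic fit.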
In general terms: In an ELISA, binding on a coated surface is turned into a signal by an enzyme label.

In experiment [1] the test system is OVCAR-3 ovarian cancer cells. Description: Cell growth inhibition, Sulforhodamine B assay, OVCAR-3. The conditions noted are these: Homo sapiens, 120 h, 5 days culture, SRB assay, read-out: Cell Line GI50 Range OVCAR-3. The format is cell-based.
Experiment [2] deals with PA-1 ovarian cancer cells. Description: Cell growth inhibition, Sulforhodamine B assay, PA-1. It is filed as cell-based. Conditions: 120 h, 5 days culture, SRB assay, read-out: Cell Line GI50 Range PA-1. (In SRB staining, fixed cells bind dye roughly in proportion to their protein.)
Experiment [3] relates to MDA-MB-468 breast cancer cells. Put plainly: Cell growth inhibition, Sulforhodamine B assay, MDA-MB-468. The format is cell-based. The conditions noted are these: Homo sapiens, 120 h, 5 days culture, SRB assay, read-out: Cell Line GI50 Range MDA-MB-468.
The next experiment concerns HT29 colon cancer cells. Put plainly: Cell growth inhibition, Sulforhodamine B assay, HT29. The conditions noted are these: Homo sapiens, HT-29, 120 h, 5 days culture, SRB assay, read-out: Cell Line GI50 Range HT29. The format is cell-based.
Experiment [4] has as its system HCT116 colon cancer cells. Description: Cell growth inhibition, Sulforhodamine B assay, HCT116. It is filed as cell-based. Conditions: Homo sapiens, HCT-116, 120 h, 5 days culture, SRB assay, read-out: Cell Line GI50 Range HCT116.
In a further experiment the target is T2, human TTK (Homo sapiens, UniProt P33981).
T2 construct: amino terminal GST fusion of full length human TTK; purchased Invitrogen
T2 sequence (P33981 1-857): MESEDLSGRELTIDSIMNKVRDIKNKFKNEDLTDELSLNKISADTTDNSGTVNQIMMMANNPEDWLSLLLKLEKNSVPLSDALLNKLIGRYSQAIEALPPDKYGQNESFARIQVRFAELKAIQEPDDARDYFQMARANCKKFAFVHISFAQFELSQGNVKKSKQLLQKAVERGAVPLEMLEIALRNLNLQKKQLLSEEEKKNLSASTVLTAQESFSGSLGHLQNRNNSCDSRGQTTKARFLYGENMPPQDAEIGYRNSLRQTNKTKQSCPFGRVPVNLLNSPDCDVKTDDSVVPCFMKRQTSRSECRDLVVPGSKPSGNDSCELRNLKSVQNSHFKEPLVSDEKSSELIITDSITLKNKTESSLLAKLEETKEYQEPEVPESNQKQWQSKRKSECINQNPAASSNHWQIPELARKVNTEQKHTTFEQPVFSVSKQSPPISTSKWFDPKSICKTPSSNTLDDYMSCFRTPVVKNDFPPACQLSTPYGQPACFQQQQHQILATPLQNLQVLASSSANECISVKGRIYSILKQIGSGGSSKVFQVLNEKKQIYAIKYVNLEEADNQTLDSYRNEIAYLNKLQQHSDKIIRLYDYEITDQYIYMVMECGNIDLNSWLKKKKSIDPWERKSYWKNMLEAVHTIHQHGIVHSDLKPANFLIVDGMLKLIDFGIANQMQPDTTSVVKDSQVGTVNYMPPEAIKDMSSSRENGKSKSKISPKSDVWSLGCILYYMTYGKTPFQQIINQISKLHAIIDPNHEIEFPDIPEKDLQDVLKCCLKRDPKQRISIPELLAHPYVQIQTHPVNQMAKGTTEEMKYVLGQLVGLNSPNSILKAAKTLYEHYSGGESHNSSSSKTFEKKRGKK
Description: TTK inhibition assay (indirect ELISA). It is filed as biochemical. The conditions noted are these: GST-TTK 0.68 nM, 16 μM ATP; read-out: IC50 Ranges TTK.

For experiment [5], the system named is MDA-MB-231 breast cancer cells. Put plainly: Cell growth inhibition, Sulforhodamine B assay, MDA-MB-231. The format is cell-based. The conditions noted are these: Homo sapiens, 120 h, 5 days culture, SRB assay, read-out: Cell Line GI50 Range MDA-MB-231.
Description: Breast cancer cells (MDA-MB-231, MDA-MB-468), colon cancer cells (HCT116, HT29) and ovarian cancer cells (PA-1, OVCAR-3) were seeded (1000 to 4000 in 80 μl per well depending on the cell growth rate) into 96 well plates 24 hours before compound overlay. Compounds were prepared as 10 mM stock solutions in 100% DMSO which were diluted with DMEM (Dulbecco's Modified Eagle's Medium) cell growth Medium (Invitrogen, Burlington, ON, Canada) containing 10% FBS (Fetal Bovine Serum) to concentrations ranging from 50 nM to 250 μM. Aliquots (20 μl) from each concentration were overlaid to 80 μl of the pre-seeded cells in the 96 well plates to make final concentrations of 10 nM to 50 μM. The cells were cultured for 5 days before the Sulforhodamine B assay (SRB) was performed to determine the compound's cell growth inhibition activity.
Sulforhodamine B (purchased from Sigma, Oakville, ON, Canada) is a water-soluble dye that binds to the basic amino acids of the cellular proteins. Thus, colorimetric measurement of the bound dye provides an estimate of the total protein mass that is related to the cell number. the cells are fixed in situ by gently aspirating off the culture media and adding 50 μl ice cold 10% Trichloroacetic Acid (TCA) per well and incubate at 4° C. for 30-60 min, The plates are washed with water five times and allowed to air dry for 5 min. Addition of 50 μl 0.4% (w/v) SRB solution in 1% (v/v) acetic acid to each well and incubatation for 30 min at RT completes the staining reaction. Following staining, plates are washed four times with 1% acetic acid to remove unbound dye and then allowed to air dry for 5 min. The stain is solubilized with 100 μl of 10 mM Tris pH 10.5 per well. Absorbance is read at 570 nm.
The percentage (%) of relative growth inhibition was calculated by comparing to DMSO treated only cells (100%). […] The GI50 was calculated using GraphPad PRISM software (GraphPad Software, Inc., San Diego, Calif., USA).

Regarding `CO[C@@H](C(=O)Nc1ccc2[nH]nc(-c3ccc(O[C@@H]4CCN(C)C[C@@H]4F)cc3)c2c1)c1ccccc1` (relative stereo) [Example A135, (R)—N-(3-(4-(((3S,4R)-3-fluoro-1-methylpiperidin-4-yl)oxy)phenyl)-1H-indazol-5-yl)-2-methoxy-2-phenylacetamide], the half-inhibitory concentration (IC50) at human PLK4 and on human TTK was ≤ 5 µM in each case. For the same compound, the GI50 (in experiment [1]; in experiment [2]; in experiment [3]; in the experiment on HT29 colon cancer cells; in experiment [4]; in experiment [5]) was ≤ 5 µM each time.
As for `CCc1cccc(CC)c1NC(=O)Nc1ccc2[nH]nc(-c3ccc4c(c3)CN(C)CCO4)c2c1` [Example A114, 1-(2,6-diethylphenyl)-3-(3-(4-methyl-2,3,4,5-tetrahydrobenzo[f][1,4]oxazepin-7-yl)-1H-indazol-5-yl)urea], the IC50 at human PLK4 and on human TTK was ≤ 5 µM throughout. Moreover, the concentration for 50% growth inhibition (GI50) (as a rule, the concentration giving 50% growth inhibition) in experiment [1] is 5 to 20 µM; in experiment [2], ≤ 5 µM; in experiment [3], ≤ 5 µM; in the experiment with HT29 colon cancer cells, ≤ 5 µM; in experiment [4], ≤ 5 µM; in experiment [5] it was ≤ 5 µM.
Regarding `CC(C)(C)OC(=O)N1CCC(Oc2ccc(-c3n[nH]c4ccc(NC(=O)C(c5ccsc5)N5CCCC5)cc34)cc2)CC1` (stereo not shown) [Example A115, tert-butyl 4-(4-(5-(2-(pyrrolidin-1-yl)-2-(thiophen-3-yl)acetamido)-1H-indazol-3-yl)phenoxy)piperidine-1-carboxylate], the concentration for half-maximal inhibition (IC50) on human PLK4 and at human TTK was ≤ 5 µM in each case. Further, the concentration for 50% growth inhibition (GI50) (in experiment [1]; in experiment [2]; in experiment [3]; with HT29 colon cancer cells; in experiment [4]; in experiment [5]) was ≤ 5 µM each time.
With `COCCN1CCC(Oc2ccc(-c3n[nH]c4ccc(C(=O)N[C@H](C)c5ccccc5F)cc34)cc2)CC1` [Example A129, (R)—N-(1-(2-fluorophenyl)ethyl)-3-(4-((1-(2-methoxyethyl)piperidin-4-yl)oxy)phenyl)-1H-indazole-5-carboxamide], the IC50 at human PLK4 and at human TTK was ≤ 5 µM in each case. For the same compound, the GI50 was 5 to 20 µM in experiment [1]; ≤ 5 µM in experiment [2]; ≤ 5 µM in experiment [3]; ≤ 5 µM with HT29 colon cancer cells; ≤ 5 µM in experiment [4]; ≤ 5 µM in experiment [5].
Take `O=C(NC(c1ccccc1)C1CC1)c1ccc2[nH]nc(-c3ccc(OCCN4CCOCC4)cc3)c2c1` (stereo not shown) [Example A140, N-(cyclopropyl(phenyl)methyl)-3-(4-(2-morpholinoethoxy)phenyl)-1H-indazole-5-carboxamide]: the half-inhibitory concentration (IC50) at human PLK4 and at human TTK was ≤ 5 µM throughout. Moreover, the GI50 (in experiment [1]; in experiment [2]; in experiment [3]; in the experiment on HT29 colon cancer cells; in experiment [4]; in experiment [5]) was ≤ 5 µM throughout.
On to `Cc1ccccc1C(NC(=O)c1ccc2[nH]nc(-c3ccc(N4CC(O)C4)cc3)c2c1)C1CC1` (stereo not shown) [Example A141, N-(Cyclopropyl(o-tolyl)methyl)-3-(4-(3-hydroxyazetidin-1-yl)phenyl)-1H-indazole-5-carboxamide], for which the IC50 on human PLK4 and at human TTK was ≤ 5 µM each time. The GI50 (in experiment [1]; in experiment [2]; in experiment [3]; with HT29 colon cancer cells; in experiment [4]; in experiment [5]) was ≤ 5 µM in each case.
For `CN1CCC(Oc2ccc(-c3n[nH]c4ccc(C(=O)NCc5ccccc5CO)cc34)cc2)CC1` [Example A142, N-(2-(hydroxymethyl)benzyl)-3-(4-((1-methylpiperidin-4-yl)oxy)phenyl)-1H-indazole-5-carboxamide], the IC50 on human PLK4 and at human TTK was ≤ 5 µM in each case. Further, the GI50 in experiment [1] was 5 to 20 µM; in experiment [2], ≤ 5 µM; in experiment [3] it was ≤ 5 µM; with HT29 colon cancer cells it was ≤ 5 µM; in experiment [4] it was ≤ 5 µM; in experiment [5] it was ≤ 5 µM.
Turning to `CO[C@@H](C(=O)Nc1ccc2[nH]nc(-c3ccc(OCC4CCN(C)CC4)cc3)c2c1)c1ccccc1` [Example A145, (R)-2-methoxy-N-(3-(4-((1-methylpiperidin-4-yl)methoxy)phenyl)-1H-indazol-5-yl)-2-phenylacetamide], the half-maximal inhibitory concentration (IC50) at human PLK4 and on human TTK was ≤ 5 µM each time. Also, the GI50 (in experiment [1]; in experiment [2]; in experiment [3]; in the experiment on HT29 colon cancer cells; in experiment [4]; in experiment [5]) was ≤ 5 µM each time.
Turning to `CN1CCC(Oc2ccc(-c3n[nH]c4ccc(NC(=O)C5OCCc6ccccc65)cc34)cc2)CC1` (stereo not shown) [Example A146, N-(3-(4-(1-Methylpiperidin-4-yloxy)phenyl)-1H-indazol-5-yl)isochroman-1-carboxamide], the IC50 at human PLK4 and at human TTK was ≤ 5 µM each time. In addition, the concentration for 50% growth inhibition (GI50) (in experiment [1]; in experiment [2]; in experiment [3]; in the experiment with HT29 colon cancer cells; in experiment [4]; in experiment [5]) was ≤ 5 µM each time.
With `COc1ccccc1C(C(=O)Nc1ccc2[nH]nc(-c3ccc(OC4CCN(C)CC4)cc3)c2c1)C1CCCC1` (stereo not shown) [Example A156, 2-cyclopentyl-2-(2-methoxyphenyl)-N-(3-(4-((1-methylpiperidin-4-yl)oxy)phenyl)-1H-indazol-5-yl)acetamide], the IC50 at human PLK4 and on human TTK was ≤ 5 µM each time. In addition, the GI50 (in experiment [1]; in experiment [2]; in experiment [3]; in the experiment with HT29 colon cancer cells; in experiment [4]; in experiment [5]) was ≤ 5 µM throughout.
In the case of `CN1CCC(Oc2ccc(-c3n[nH]c4ccc(NC(=O)C(c5ccccc5F)C5CCCC5)cc34)cc2)CC1` (stereo not shown) [Example A162, 2-cyclopentyl-2-(2-fluorophenyl)-N-(3-(4-((1-methylpiperidin-4-yl)oxy)phenyl)-1H-indazol-5-yl)acetamide], the IC50 at human PLK4 and on human TTK was ≤ 5 µM in each case. Besides, the GI50 (in experiment [1]; in experiment [2]; in experiment [3]; with HT29 colon cancer cells; in experiment [4]; in experiment [5]) was ≤ 5 µM throughout.
